{"source": "patent US20230226040A1", "about": "“COMBINATION THERAPY COMPRISING AN FGFR INHIBITOR AND A KRAS INHIBITOR” (Incyte Corporation, priority 2021, published 2023)", "key": {"SW-837": {"test_system": "SW-837", "experiment": "5-day Cell Titer Glo combination matrix, Bliss score", "assay_type": "cell-based", "details": "SW-837 (CRC, Epithelial); KRAS inhibitor in combination with pemigatinib; 5 days", "quoted_text": "(§2) Cells were seeded in RPMI medium with 10% HI FBS at a density of 500 cells/well in Greiner, white, clear bottom, 384-well tissue culture treated plates containing 10×10 combination matrices of compound. Plates were incubated at 37° C., 5% CO2 for 5 days. On day 5, Cell Titer Glo reagent was added to the plates and ATP luminescence was detected using a Pherastar FSX reader. The synergy score for the combination effect was calculated using a Bliss score model where the Bliss score=Yab-(Ya+Yb−(YaYb))×100, where Ya and Yb are the monotherapies. Bliss scores >20 are strongly synergistic and a higher Bliss scores indicates a higher level of synergism.\n(§3) Cells were seeded in RPMI medium with 10% HI FBS at a density of 500 cells/well in Greiner, white, clear bottom, 384-well tissue culture treated plates containing 10×10 combination matrices of compound. Plates were incubated at 37° C., 5% CO2 for 5 days. On day 5, Cell Titer Glo reagent was added to the plates and ATP luminescence was detected using a Pherastar FSX reader. The synergy score for the combination effect was calculated using a Bliss score model where the Bliss score=Yab−(Ya+Yb−(YaYb))×100, where Ya and Yb are the monotherapies. Bliss scores >20 are strongly synergistic and a higher Bliss scores indicates a higher level of synergism."}, "[1]": {"test_system": "MiaPaca2 KRAS G12C resistant clone 23", "experiment": "5-day Cell Titer Glo viability and Bliss score", "assay_type": "cell-based", "details": "5-day CTG", "description": "(§1) For G12C resistant clone generation, MiaPaca2 parent cells were cultured with increasing concentrations of AMG510 (up to 1μM) over time. The viable cells were re-fed fresh media containing AMG510 weekly. Once the AMG510 resistant cells were growing at normal rates in the presence of 1μM AMG510, they were cloned by limiting dilution. Eight clones were selected for continued passage and further experiments."}, "[2]": {"test_system": "MiaPaca2 KRAS G12C resistant clone 28", "experiment": "5-day Cell Titer Glo viability and Bliss score", "assay_type": "cell-based", "details": "5-day CTG", "description": "as §1"}, "[3]": {"test_system": "MiaPaca2 KRAS G12C resistant clone 11", "experiment": "5-day Cell Titer Glo viability and Bliss score", "assay_type": "cell-based", "details": "CLONE 11, 5-day CTG", "description": "as §1"}, "[4]": {"test_system": "MiaPaca2 KRAS G12C resistant clone 7", "experiment": "5-day Cell Titer Glo viability and Bliss score", "assay_type": "cell-based", "details": "5-day CTG", "description": "as §1"}, "HCC-44": {"test_system": "HCC-44", "experiment": "5-day Cell Titer Glo combination matrix, Bliss score", "assay_type": "cell-based", "details": "HCC-44 (Lung, Mesenchymal); KRAS inhibitor in combination with pemigatinib; 5 days", "quoted_text": "as §2, §3"}, "H358": {"test_system": "H358", "experiment": "5-day Cell Titer Glo combination matrix, Bliss score", "assay_type": "cell-based", "details": "H358 (Lung, Epithelial); KRAS inhibitor in combination with pemigatinib; 5 days", "quoted_text": "as §2\n(§4) Cells were seeded in RPMI medium with 10% HI FBS at a density of 500 cells/well in Greiner, white, clear bottom, 384-well tissue culture treated plates containing 10×10 combination matrices of compound. Plates were incubated at 37° C., 5% CO2 for 5 days. On day 5, Cell Titer Glo reagent was added to the plates and ATP luminescence was detected using a Pherastar FSX reader. Synergy score for the combination effect is calculated using a Bliss score model where the Bliss score=Yab−(Ya+Yb−(YaYb))×100, where Ya and Yb are the monotherapies. Bliss scores >20 are strongly synergistic and a higher Bliss scores indicates a higher level of synergism.\nas §3"}, "LU99 cells": {"test_system": "LU99 cells", "experiment": "siRNA FGFR knockdown plus KRAS G12C inhibitor, Cell Titer Glo proliferation", "assay_type": "cell-based", "details": "120 h", "description": "Knockdown efficiency was assessed by Western blot and its effect was measured by cell proliferation inhibition.\nThe lyophilized siRNA pools or individuals (Dharmacon ON-TARGET plus siRNA from Horizon Discovery) were reconstituted by combining 1× siRNA buffer (200 μL) with lyophilized siRNA (20 nmol); or combining 1× siRNA buffer (100 μL) with lyophilized siRNA (10 nmol). Dharmafect Reagent 1 was prepared at a 1:200 dilution in 1X siRNA buffer. One tube of diluted reagent was prepared for each siRNA dilution. To each tube, the appropriate siRNA was added to Dharmafect Reagent 1 at a 1:400 dilution. The prepared siRNA reagent ([…]) was added to the appropriate number of wells on a 96-well clear bottom Greiner plate and incubated at room temperature for 30 min.\nFor plating in 96-well pates, 2000 LU99 cells per well in 100 μL of medium were prepared. The prepared cells (100 μL per well) were added to each well of the 96-well plate and incubated at 48 h.\nCompound plates were prepared with a compound starting concentration of 5 mM in a 3-fold dilution. Following 48 h transfection incubation, the appropriate compounds were added to the 96-well plate at a final starting concentration of 5 μM in 3-fold dilution (11 point dose response curve). After addition of the compounds, the 96-well plates were incubated at 37° C. for 120 h. After this time, Cell Titer Glo reagent is reconstituted and 100 μL of reagent was added per well. The plates were tapped gently and luminescence was read on a Pherastar microplate reader."}, "pFRS2a [5]": {"test_system": "pFRS2a", "experiment": "Western blot of pFRS2a in LU99 cell lysate (90 hours treatment)", "assay_type": "cell-based", "details": "LU99 cells; 50 nM KRAS G12C inhibitor alone", "description": "FGFR1 and downstream activation marker pFRS2a protein levels were examined in indicated cell lines, as well as markers for epithelial-like cells (E-cadherin) and mesenchymal-like cells (Vimentin)."}, "H1792": {"test_system": "H1792", "experiment": "5-day Cell Titer Glo combination matrix, Bliss score", "assay_type": "cell-based", "details": "H1792 (Lung, Mesenchymal); KRAS inhibitor in combination with pemigatinib; 5 days", "quoted_text": "as §2, §4, §3"}, "SW-1573": {"test_system": "SW-1573", "experiment": "5-day Cell Titer Glo combination matrix, Bliss score", "assay_type": "cell-based", "details": "SW-1573 (Lung, Mesenchymal); KRAS inhibitor in combination with pemigatinib; 5 days", "quoted_text": "as §2, §4, §3"}, "Calu-1": {"test_system": "Calu-1", "experiment": "5-day Cell Titer Glo combination matrix, Bliss score", "assay_type": "cell-based", "details": "Calu-1 (Lung, Mesenchymal); KRAS inhibitor in combination with pemigatinib; 5 days", "quoted_text": "as §2"}, "[6]": {"test_system": "LU99 lung cancer xenograft", "experiment": "LU99 xenograft model, tumor growth inhibition", "assay_type": "in vivo", "details": "NCr nude mice; AMG510 20 mg/kg, pemigatinib 0.3 mg/kg, alone or combined; oral QD, 30 days; last day of treatment", "description": "The in vivo effect of combining the FGFR1 inhibitor pemigatinib plus the KRAS G12C inhibitor AMG510 was assessed in the LU99 lung cancer model (JCRB0080, JCRB) xenograft model (FIG. 3) in 6 to 8 week old female NCr nude mice (Taconic). Pemigatinib and AMG510 were suspended in 5% N,N-dimethyl acetamide (DMAC)+50 mM Citrate buffer (pH 3.0) in 0.5% methyl cellulose for oral administration. Briefly, mice were inoculated in the left flank with 1×10^7 LU99 cells re-suspended in a PBS and matrigel (Corning Life Sciences, Tewksbury, Mass) solution at 1:1. On Day 7, mice were randomized into 4 groups of 10 mice at approximate mean volume (˜212 mm^3). […] Tumor growth inhibition was calculated using the formula (1−(VT/VC))×100, where VT is the tumor volume of the treatment group on the last day of treatment, and Vc is the tumor volume of the control group on the last day of treatment. […] Statistics were determined using One-Way ANOVA.\nBriefly, mice were inoculated in the left flank with 1×10^7LU99 cells re-suspended in a PBS and matrigel (Corning Life Sciences, Tewksbury, Mass) solution at 1:1. […] TGI was calculated using the formula (1−(VT/VC))×100, where VT is the tumor volume of the treatment group on the last day of treatment, and VC is the tumor volume of the control group on the last day of treatment. […]"}, "pFRS2a [7]": {"test_system": "pFRS2a", "experiment": "Western blot of pFRS2a in LU99 cells (24 hours treatment, with or without rhFGF)", "assay_type": "cell-based", "details": "100 nM KRAS G12C inhibitor, with or without rhFGF stimulation", "quoted_text": "LU99 cells were treated with 100 nM of Compound 2, pemigatinib, Compound 1, or indication combination for 24 hours, and with or without lng/ml recombinant human FGF (rhFGF) before harvesting the lysate.\nCells were seeded in Corning 6-well tissue culture treated plates in RPMI medium with 10% FBS at 6×10^5 cells/well. After 48 hours, cells were or treated with indicated compounds for 24 hours at 37° C., 5% CO2. rhFGF—basic (R&D systems 233-FB) was added at 1 nG/ml for 15 minutes at the end of the experiment as indicated. The cells were washed with PBS and lysed with 1x lysis buffer (Cell Signaling #9803) with protease and phosphatase inhibitors. Twenty-five μg of total protein lysates was subjected to SDS-PAGE and immunoblot analysis using the following Cell Signaling antibodies: pERK (#4370) phospho-FRS2a (#3861) and beta-Actin (#12620).\nCells were seeded in Corning 6-well tissue culture treated plates in RPMI medium with 10% FBS at 6x10^5 cells/well. After 48 hours, cells were or treated with indicated compounds for 24 hours at 37° C., 5% CO2. rhFGF—basic (R&D systems 233-FB) was added at 1 nG/ml for 15 minutes at the end of the experiment as indicated. The cells were washed with PBS and lysed with 1× lysis buffer (Cell Signaling #9803) with protease and phosphatase inhibitors. […]"}, "[8]": {"details": "in the absence of FGFR1, FGFR2 or FGFR3"}}, "note": "Where “and” joins values, the source holds several entries; their conditions need not be identical. Equal values may be shown once.", "data": [{"smiles": "C=CC(=O)N1CCN(c2nc(=O)n(-c3c(C)ccnc3C(C)C)c3nc(-c4c(O)cccc4F)c(F)cc23)[C@@H](C)C1", "note": "[AMG-510]", "values": [{"measurement": "Avg. Bliss Score", "setting": "SW-837", "value": "−7.7"}, {"measurement": "% viability, G12C i 111 nM", "setting": "[1]; G12C i alone (Compound 1 arm)", "value": 83.9, "unit": "%"}, {"measurement": "% viability, G12C i 111 nM", "setting": "[1]; G12C i alone (Pemi arm)", "value": 90.9, "unit": "%"}, {"measurement": "% viability, G12C i 111 nM", "setting": "[2]; G12C i alone (Compound 1 arm)", "value": 77.5, "unit": "%"}, {"measurement": "% viability, G12C i 111 nM", "setting": "[2]; G12C i alone (Pemi arm)", "value": 69.6, "unit": "%"}, {"measurement": "% viability, G12C i 111 nM", "setting": "[3]; G12C i alone (Compound 1 arm)", "value": 63, "unit": "%"}, {"measurement": "% viability, G12C i 111 nM", "setting": "[3]; G12C i alone (Pemi arm)", "value": 67, "unit": "%"}, {"measurement": "% viability, G12C i 111 nM", "setting": "[4]; Average, G12C i alone (Compound 1 arm)", "value": 77.6, "unit": "%"}, {"measurement": "% viability, G12C i 111 nM", "setting": "[4]; Average, G12C i alone (Pemi arm)", "value": 77.8, "unit": "%"}, {"measurement": "% viability, G12C i 111 nM", "setting": "[4]; G12C i alone (Compound 1 arm), single experiments", "value": "67.1% and 88%"}, {"measurement": "% viability, G12C i 111 nM", "setting": "[4]; G12C i alone (Pemi arm), single experiments", "value": "69.6% and 90% and 73.7%"}, {"measurement": "Avg. Bliss Score", "setting": "HCC-44", "value": 4.4}, {"measurement": "Avg. Bliss Score", "setting": "H358", "value": 3.7}, {"measurement": "inhibition of LU99 cell proliferation after siRNA knockdown", "setting": "LU99 cells; [8]", "value": "higher inhibition in proliferation"}, {"measurement": "inhibition of LU99 cell proliferation after siRNA knockdown", "setting": "LU99 cells; in the absence of FGFR1 or FGFR4", "value": "higher inhibition in proliferation"}, {"measurement": "protein level of pFRS2a", "setting": "pFRS2a [5]", "value": "elevated the protein level of pFRS2a"}, {"measurement": "Avg. Bliss Score", "setting": "H1792", "value": 26.7}, {"measurement": "Avg. Bliss Score", "setting": "SW-1573", "value": 25.9}, {"measurement": "Avg. Bliss Score", "setting": "Calu-1", "value": 11.2}, {"measurement": "TGI (tumor growth inhibition)", "setting": "[6]", "value": 66, "unit": "%"}]}, {"smiles": "COC/C=C/C(=O)N1CC[C@H](n2nnc3c(N4CC(C)(N(C)C)C4)nc4c(F)c(-c5ccc(F)c6cccnc56)c(C(F)(F)F)cc4c32)C[C@H]1CC#N", "note": "[Compound 2, 2-((2S,4S)-4-(4-(3-(dimethylamino)-3-methylazetidin-1-yl)-6-fluoro-7-(5-fluoroquinolin-8-yl)-8-(trifluoromethyl)-1H-[1,2,3]triazolo[4,5-c]quinolin-1-yl)-1-((E)-4-methoxybut-2-enoyl)piperidin-2-yl)acetonitrile]", "values": [{"measurement": "pFRS2a signaling", "setting": "pFRS2a [7]", "value": "elevated"}, {"measurement": "inhibition of LU99 cell proliferation after siRNA knockdown", "setting": "LU99 cells; all FGFR isoforms knocked down, in particular in the absence of FGFR1 and FGFR2", "value": "higher inhibition in proliferation"}, {"measurement": "inhibition of LU99 cell proliferation after siRNA knockdown", "setting": "LU99 cells; [8]", "value": "higher inhibition in proliferation"}, {"measurement": "protein level of pFRS2a", "setting": "pFRS2a [5]", "value": "elevated the protein level of pFRS2a"}]}]}
